# Measurements as given in paper PMC6683298, “Identifying potential novel drugs against Helicobacter pylori by targeting the essential response regulator HsrA” (Scientific Reports, 2019).
# Target: T1, HsrA response regulator (HP1043) (Helicobacter pylori, UniProt O25684)
# T1 construct: gene HP_1043; N-terminal 6xHis tag, removed with thrombin; 223 residues; symmetric dimer
# T1 sequence (O25684 1-223): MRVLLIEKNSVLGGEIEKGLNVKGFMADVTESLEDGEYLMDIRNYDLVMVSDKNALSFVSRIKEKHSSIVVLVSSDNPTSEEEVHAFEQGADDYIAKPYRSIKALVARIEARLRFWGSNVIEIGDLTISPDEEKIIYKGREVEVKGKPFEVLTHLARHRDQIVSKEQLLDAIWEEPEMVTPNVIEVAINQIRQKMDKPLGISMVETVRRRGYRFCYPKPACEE
# Assay: isothermal titration calorimetry
# Format: binding
# Details: read-out: ITC^a / Kd
# From the text: isothermal titration calorimetry on HsrA response regulator (HP1043)
row,Structure (SMILES),Kd [µM]
1,O=c1cc(-c2ccc(O)cc2)oc2cc(O)cc(O)c12 [apigenin],20
2,O=c1cc(-c2ccccc2)oc2cc(O)cc(O)c12 [chrysin],17
3,COc1ccc([C@@H]2CC(=O)c3c(O)cc(O)cc3O2)cc1O [hesperetin],26
4,O=c1c(O)c(-c2ccc(O)cc2)oc2cc(O)cc(O)c12 [kaempferol],33
